Test results published in patent US4499104A, “Imidazole compound, the process for its preparation, and therapeutically active compositions containing same” (priority 1976, dated 1985).

Legend:
[1] = Pulminary edema by carrageen (Sancilio method, pleural exudate); type: in vivo, Wistar-Roux-Ocefa rats; conditions: for ml of exudate: 30 mg/Kg, pleural cavity
Description: Using the Sancilio method (Sancilio F. L., J. Pharmacol. Exptl. Therap., 168, 199 (1969); Sancilio L. F. Rodrigues R., Proc. Soc. Exptl. Biol. Med., 123, 707 (1969); Sancilio L. F. Lawrence R., Proc. Soc. Exptl. Biol. Med., 127, 597 (1968), pulminary irritation was induced in Wistar-Roux-Ocefa rats and the capacity of chlorophenazole and other drugs to prevent production of pleural exudate was measured. 5 ml of a 0.025% carrageen solution and 0.075% Evans blue were injected into the pleurea.
The action of chlorophenazole, mepyrazole and phenylbutazone were evaluated from the quantity of exudate present in the pleural cavity after 1 and 6 hours.

[2] = Edema by carrageen (rat paw), antiedematous activity; type: in vivo, Rats of the Wistar-Roux-Ocefa stock; conditions: for IT (DL50/DE50): DL50/DE50, os; for ED50: Rattus norvegicus, po, os, probits method and graphically, read-out: DE50 (the source's name)
Description: (§1) A 1% physiological solution of carrageen was used. Rats of the Wistar-Roux-Ocefa stock having a weight of 150±30 g were used. The drugs were suspended in 1% carboxymethylcellulose or dissolved in distilled water and administered orally one hour before the inflammatory agent in a volume of 0.5 ml/100 g. The carrageen was adminstered subcutaneously in the subplanetary region of one of the rear paws. The volume of the paw was measured platysmagraphically initially and then after 1.5 hour, 3 hours and 5 hours after administering the carrageen. One inflammation unit was defined as the displacement of 0.01 ml of Hg.
(§2) The edema was evaluated as the difference in volume of the rear paw before and after the carrageen. The DE 50 was calculated by the probits method and graphically. The comparison drugs used were phenylbutazone and niflumic acid.

[3] = Edema by carrageen in normal and adrenoprival (suprarenectomised) rats; type: in vivo, rat; design: Edema by carrageen: unit not given beside the values; conditions: adrenoprival rats
Description: as §1, §2
To evaluate if the activity of the chlorophenazole on edema by carrageen was influenced by stimulation of the suprarenes, experiments were carried out with suprarenectomised rats. Normal rats were also compared with falsely operated rats to evaluate the influence of the operational trauma.

[4] = in vivo; conditions: rat, po
[5] = Action on sleep by barbiturates; type: in vivo, Wistar-Ocefa rats; conditions: pentobarbital sodium 40 mg/kg alone
Description: […] Loss of the redressment reflex was taken to indicate commencement of sleep. The chlorophenazone was administered orally with a dose of 1/10 of the DL50. The induction time and the duration of sleep were measured.

[6] = system: rats; assay: Chronic toxicity, first experiment (60 days); type: in vivo, Wistar-Ocefa rats; conditions: rat, in vivo
Description: Wistar-Ocefa rats of both sexes weighing 70-90 g were used, divided into groups of 30 animals (15 males and 15 females) to a total of […].
Chlorophenazole and phenylbutazone (reference drug) were administered orally for a period of 60 days in doses of 30-60 mg/kg of chlorophenazole and 8-160 mg/kg of phenylbutazone (first experiment) and for a period of 5 months in doses of 6-12 mg/kg of chlorophenazole and 16 mg/kg of phenylbutazone (second experiment).
The following parameters were determined periodically: behavior, general state, food consumption, body weight, red blood cell number, white blood cell number, leucocite formula, hemoglobin, hematocrit, globular value, total proteins, glycemia, azotemia, cholesterol, total lipids, triglycerides, creatinine, GOT, GPT, urine analysis. At the end of the experiment the animals were sacrificed, their general state was observed, the following organs were weighed: liver, spleen, kidneys, supranenes, ovary and testicles, lungs, heart, stomach.

Structure (SMILES)	ml of exudate [1]	Δ Volume of the inflamed paw ([2]; 10 mg/kg oral, 1.5 hours)	Δ Volume of the inflamed paw ([2]; 10 mg/kg oral, 3 hours)	Δ Volume of the inflamed paw ([2]; 10 mg/kg oral, 5 hours)	Δ Volume of the inflamed paw ([2]; 20 mg/kg oral, 1.5 hours)	Δ Volume of the inflamed paw ([2]; 20 mg/kg oral, 3 hours)	Δ Volume of the inflamed paw ([2]; 20 mg/kg oral, 5 hours)	Δ Volume of the inflamed paw ([2]; 40 mg/kg oral, 1.5 hours)	Δ Volume of the inflamed paw ([2]; 40 mg/kg oral, 3 hours)	Δ Volume of the inflamed paw ([2]; 40 mg/kg oral, 5 hours)	IT (DL50/DE50) [2]	ED50 [2]	LD50 [4]	other results
COc1cc(C)nc(-n2nc(C)cc2OC)n1 [Mepyrazole]	4.38 mL													
O=C(O)c1cccnc1Nc1cccc(C(F)(F)F)c1 [Niflumic acid]		25 UPI	51 UPI	80 UPI	20 UPI	35 UPI	56 UPI	18 UPI	33 UPI	49 UPI	11.40	7 mg/kg	30 mg/kg	Edema by carrageen ([3]; 10 mg/kg, 1.5 hours): 25; Edema by carrageen ([3]; 10 mg/kg, 3 hours): 34; Edema by carrageen ([3]; 20 mg/kg, 1.5 hours): 20; Edema by carrageen ([3]; 20 mg/kg, 3 hours): 24; Edema by carrageen ([3]; 40 mg/kg, 1.5 hours): 19; Edema by carrageen ([3]; 40 mg/kg, 3 hours): 30
CCCC(C)C1(CC)C(=O)NC(=O)NC1=O (stereo not shown) [Pentobarbital sodium, reference compound]														Induction time [5]: 4.4 min; Sleeping time [5]: 49.1 min
CCCCC1C(=O)N(c2ccccc2)N(c2ccccc2)C1=O [Phenylbutazone]	3.12 mL	28 UPI	65 UPI	88 UPI	26 UPI	59 UPI	74 UPI	24 UPI	51 UPI	73 UPI	23.40	15 mg/kg	351 mg/kg	activity on pleural exudate ([1]; exudate after 1 and 6 hours): significantly active; cholesterol [6]: the same for cholesterol at the larger doses; stomach appearance [6]: contract and pale
